Reference: article PMC10137179, “Assessment of Covalently Binding Warhead Compounds in the Validation of the Cytomegalovirus Nuclear Egress Complex as an Antiviral Target” (Cells, 2023)
Where two headings read alike, the source gives them in different places.

Legend:
pUL50-HA + pUL53-Flag = target: T1, pUL50-HA + pUL53-Flag (Human cytomegalovirus, UniProt P16791); assay: Coimmunoprecipitation (CoIP) of pUL50-HA and pUL53-Flag from cotransfected 293T cells; type: binding, HCMV; details: serial concentrations, mostly at 20–40 µM; added 24 h p.t. or after cell lysis
T1 construct: expressed in transfected cells; host or cells: 293T
T1 sequence (P16791 whole entry): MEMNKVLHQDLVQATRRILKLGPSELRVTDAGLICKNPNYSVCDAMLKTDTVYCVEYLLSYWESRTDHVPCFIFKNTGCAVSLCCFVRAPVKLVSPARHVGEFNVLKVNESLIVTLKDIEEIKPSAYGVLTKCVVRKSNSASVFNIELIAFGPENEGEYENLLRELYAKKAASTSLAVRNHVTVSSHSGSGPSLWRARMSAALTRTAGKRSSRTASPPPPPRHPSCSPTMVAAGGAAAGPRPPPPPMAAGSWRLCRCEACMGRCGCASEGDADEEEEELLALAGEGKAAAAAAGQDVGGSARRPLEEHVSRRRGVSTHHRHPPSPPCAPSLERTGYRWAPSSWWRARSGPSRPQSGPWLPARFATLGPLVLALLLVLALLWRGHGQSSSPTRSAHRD
Experimental: For CoIP analysis, 293T cells were seeded in 10 cm dishes with a density of 5 × 10^6 cells and used for transient transfection with expression plasmids. Then, 2–3 days post-transfection (d p.t.), CoIP was performed as described previously, using mAb-HA (H9658, Sigma-Aldrich, St. Louis, MO, USA). In brief, cells were lysed in 500 μL CoIP buffer (50 mM Tris/HCl (pH 8.0), 150 mM NaCl, 5 mM EDTA, 0.5% NP-40, 1 mM PMSF, 2 μg/mL aprotinin, 2 μg/mL leupeptin and 2 μg/mL pepstatin). Subsequently, total lysates were incubated with antibody-coated (2 μL of tag-specific or control antibodies) Dynabeads® Protein A (30 μL per sample; Life Technologies, Carlsbad, CA, USA) for 2 h at 4 °C under rotation. The precipitates were washed five times with 1 mL of CoIP buffer. CoIP samples and lysate controls were taken prior to the addition of the CoIP antibody. SDS-PAGE and standard Western blot analysis of cell lysates was performed using equal protein amounts as described previously. […]
In both cases, total lysates were prepared at 48 h p.t., and the CoIP analysis was performed under continued drug treatment (Figure S3). The protein applied as the basis for IP (using tag-specific mAb-HA) was pUL50-HA, and pUL53-Flag was detected as the CoIP partner. […]

HCMV AD169 (WT) = assay: qPCR-based replication assay, parental HCMV AD169 (WT) in HFF-UL50 cells; type: cell-based
Experimental: The viral genome copy number in cell culture supernatants was determined by IE1-specific quantitative real-time PCR (qPCR) as described previously. […] For the qPCR reactions, aliquots of infected-cell supernatants were incubated with proteinase K (Sigma-Aldrich, St. Louis, MO, USA) at 56 °C for 1 h in order to release the viral DNA. After a denaturation step at 95 °C for 5 min, the DNA samples were optionally stored at 4 °C or directly used for qPCR, as performed in a 25 µL reaction mixture containing 5 µL of either the sample or the standard DNA solution. Additional components of the reaction mixture were 12.5 µL 2× TaqMan PCR Mastermix (Applied Biosystems, Waltham, MA, USA), 7.5 pmol of each primer (5′-[…]-3′) and 5′-[…]-3′) and 5 pmol probe directed against the HCMV MIE region exon 4 (5′-[…]-3′), which was labeled with 6-carboxyfluorescein reporter dye and 6-carboxytetramethylrhodamine quencher dye. The DNA standard for quantification was prepared by serial dilutions of an MIE-inserted plasmid. The thermal cycling conditions consisted of two initial steps of 2 min at 50 °C and 10 min at 95 °C followed by 40 amplification cycles (15 s at 95 °C, 1 min 60 °C). Reactions were performed with an ABI Prism 7700 sequence detector (Applied Biosystems, Waltham, MA, USA).
To this end, the conditional expression system of the HCMV ΔUL50-ΣUL53 recombinant was applied. […] The relative differences in viral replication efficiencies, under these four chosen conditions, were normalized by two means, namely, by using the same conditions in the DMSO control panel (±S, ±D) and by evaluating viral replication in percentage values (% DMSO).
HFF-UL50 cells were cultivated in 96-well plates and infected with (A,B) HCMV ∆UL50-ΣUL53, with (C) parental HCMV AD169 (WT), using adjusted genome copy numbers, or remained uninfected (mock). Viral input was adjusted to 1 × 10^5 copies per well. […] Dox was refreshed every second day. At 14 d p.i., supernatants were harvested, and viral genome equivalents were determined using HCMV IE1-specific qPCR. […]

Q: With `C=CC(=O)N1CCC[C@@H](n2nc(-c3ccc(Oc4ccccc4)cc3)c3c(N)ncnc32)C1` [ibrutinib] as the molecule, how does the “coimmunoprecipitated pUL53-Flag (in words)” value (pUL50-HA + pUL53-Flag) read?
A: trend of a reduction in coimmunoprecipitated pUL53-Flag

Q: And the EC50 (HCMV AD169 (WT); Human betaherpesvirus 5, AD169, 336 h, AD169 WT, +S+D, 14 d p.i., qPCR, read-out: EC50)?
A: 2300 ± 1800 nM

Q: What about the EC50 (HCMV AD169 (WT); Human betaherpesvirus 5, AD169, 336 h, AD169 WT, -S-D, 14 d p.i., qPCR, read-out: EC50) of the same molecule?
A: 2500 ± 2800 nM

Q: And the EC50 (HCMV AD169 (WT); Human betaherpesvirus 5, AD169, parental HCMV AD169, qPCR-based assays, mean, read-out: mean EC50)?
A: 2400 nM
